Our source for the IC50 and inhibition values is ChEMBL document CHEMBL4699570, “Design, synthesis and biological evaluation of novel c-Met/HDAC dual inhibitors” (Bioorg Med Chem Lett, 2020).

For one assay, the system named is MCF7. The assay is described as follows: Antiproliferative against human MCF-7 cells assessed as reduction in cell viability by MTT assay. Format: functional, cell-based.
The test system of the next assay is A549. The assay is described as follows: Antiproliferative against human A549 cells assessed as reduction in cell viability by MTT assay. The format is functional, cell-based. (In general: Formazan colour is commonly taken as a measure of viable cells.)
In assay [1] the target is T1, Hepatocyte growth factor receptor (Homo sapiens, UniProt P08581). Conditions: dose 100.0 nM.
Description: Inhibition of c-MET (unknown origin) at 100 nM relative to control
Assay [2] has as its target T2, Histone deacetylase 1 (Homo sapiens, UniProt Q13547). The note with it: dose 100.0 nM.
Description: Inhibition of HDAC1 (unknown origin) at 100 nM relative to control
The target in assay [3] is T2, Histone deacetylase 1. The assay is described as follows: Inhibition of HDAC1 (unknown origin).
The target of assay [4] is T1, Hepatocyte growth factor receptor. The assay is described as follows: Inhibition of c-MET (unknown origin).

T2 sequence (Q13547 whole entry): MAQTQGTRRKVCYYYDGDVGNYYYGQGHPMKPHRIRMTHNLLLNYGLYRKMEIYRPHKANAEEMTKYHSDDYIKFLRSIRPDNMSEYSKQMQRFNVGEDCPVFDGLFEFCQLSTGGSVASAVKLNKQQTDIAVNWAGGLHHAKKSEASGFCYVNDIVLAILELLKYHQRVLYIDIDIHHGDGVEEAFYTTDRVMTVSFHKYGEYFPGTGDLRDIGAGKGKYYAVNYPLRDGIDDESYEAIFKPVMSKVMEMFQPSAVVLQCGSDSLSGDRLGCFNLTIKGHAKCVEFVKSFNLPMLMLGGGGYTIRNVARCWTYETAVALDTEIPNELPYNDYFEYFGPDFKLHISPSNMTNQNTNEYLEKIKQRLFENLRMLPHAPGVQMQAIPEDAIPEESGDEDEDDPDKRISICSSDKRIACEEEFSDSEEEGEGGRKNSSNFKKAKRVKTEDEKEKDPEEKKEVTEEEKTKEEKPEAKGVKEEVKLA
T1 sequence (P08581 whole entry): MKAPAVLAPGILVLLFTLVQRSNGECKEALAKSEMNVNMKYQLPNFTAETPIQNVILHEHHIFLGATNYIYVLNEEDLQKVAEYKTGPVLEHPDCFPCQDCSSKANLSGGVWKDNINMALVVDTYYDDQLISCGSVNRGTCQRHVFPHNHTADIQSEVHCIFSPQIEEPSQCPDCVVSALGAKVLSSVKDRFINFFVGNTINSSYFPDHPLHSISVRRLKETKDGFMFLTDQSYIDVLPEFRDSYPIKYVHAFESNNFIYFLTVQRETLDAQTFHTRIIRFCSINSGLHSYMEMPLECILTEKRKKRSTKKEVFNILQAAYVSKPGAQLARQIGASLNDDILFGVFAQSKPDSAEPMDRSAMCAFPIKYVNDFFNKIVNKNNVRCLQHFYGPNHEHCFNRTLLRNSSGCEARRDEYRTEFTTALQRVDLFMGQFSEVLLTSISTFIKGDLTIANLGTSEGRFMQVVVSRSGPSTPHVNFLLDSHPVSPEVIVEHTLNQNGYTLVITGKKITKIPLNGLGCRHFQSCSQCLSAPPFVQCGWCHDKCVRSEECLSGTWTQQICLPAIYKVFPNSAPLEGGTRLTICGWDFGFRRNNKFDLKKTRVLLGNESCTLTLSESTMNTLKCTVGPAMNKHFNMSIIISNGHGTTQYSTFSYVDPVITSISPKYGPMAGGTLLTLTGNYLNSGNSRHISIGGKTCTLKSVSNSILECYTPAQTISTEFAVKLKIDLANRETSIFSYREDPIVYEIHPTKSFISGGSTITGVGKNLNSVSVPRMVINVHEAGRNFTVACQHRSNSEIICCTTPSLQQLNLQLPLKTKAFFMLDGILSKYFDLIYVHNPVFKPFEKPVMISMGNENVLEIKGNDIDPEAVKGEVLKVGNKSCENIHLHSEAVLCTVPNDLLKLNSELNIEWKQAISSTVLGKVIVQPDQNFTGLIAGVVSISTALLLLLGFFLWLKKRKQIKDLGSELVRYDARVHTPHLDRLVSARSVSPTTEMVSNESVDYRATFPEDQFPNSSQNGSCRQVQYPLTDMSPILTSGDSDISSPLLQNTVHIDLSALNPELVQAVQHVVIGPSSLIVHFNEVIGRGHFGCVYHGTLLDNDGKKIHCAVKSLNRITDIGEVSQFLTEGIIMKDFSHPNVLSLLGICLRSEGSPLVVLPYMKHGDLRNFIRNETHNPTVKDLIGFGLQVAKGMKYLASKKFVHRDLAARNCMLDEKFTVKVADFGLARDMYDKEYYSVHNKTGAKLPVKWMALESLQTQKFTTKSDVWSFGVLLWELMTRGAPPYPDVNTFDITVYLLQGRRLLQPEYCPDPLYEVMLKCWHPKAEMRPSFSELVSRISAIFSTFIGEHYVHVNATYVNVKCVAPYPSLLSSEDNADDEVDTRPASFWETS

`COc1ccccc1NC(=O)Nc1ccc(Oc2ccnc3cc(OCCCCCCC(=O)NO)c(OC)cc23)cc1`: the IC50 with MCF7 was 6280 nM; with A549, 16200 nM. In addition, the inhibition in assay [1] came to 31.9%.

Consider `COc1cc2c(Oc3ccc(NC(=O)NNC(=O)c4cccc(C)c4)cc3)ccnc2cc1OCCCCCCC(=O)NO`, for which the IC50 turned out to be 5830 nM in the assay with MCF7 and 8190 nM with A549. The inhibition stood at 67.6% on Histone deacetylase 1 [2] and 29.9% in assay [1].

For `COc1cc2c(Oc3ccc(NC(=O)N/N=C/c4ccc(F)cc4)cc3)ccnc2cc1OCCCCCCC(=O)NO`, the values for the IC50 with MCF7 and in the assay with A549 were 1360 nM and 4920 nM, respectively. The inhibition on Histone deacetylase 1 [2] came to 56.1%; in assay [1] it was 24.2%.

As for `COc1cc2c(Oc3ccc(NC(=O)C4(C(=O)Nc5ccc(F)cc5)CC4)cc3F)ccnc2cc1OCCCN1CCOCC1` [FORETINIB], the values for the IC50 in the assay on MCF7 and in the assay with A549 were 560 nM and 910 nM, respectively. The same molecule displayed an inhibition against Histone deacetylase 1 [2] of 38.6%.

As to `COc1cc2c(Oc3ccc(NC(=O)NNC(=O)c4ccccc4F)cc3)ccnc2cc1OCCCCCCC(=O)NO`, the IC50 turned out to be 3600 nM in the assay with MCF7 and 2420 nM with A549. Also, the inhibition against Histone deacetylase 1 [2] came to 28.7%; in assay [1], 81.4%.

For the molecule `COc1cc2c(Oc3ccc(NC(=O)Nc4ccc(C(F)(F)F)cc4Cl)cc3)ccnc2cc1OCCCCCCC(=O)NO`, the IC50 at Histone deacetylase 1 [3] turned out to be 148 nM; in assay [4] it was 41.2 nM; with MCF7 it was 500 nM; with A549, 970 nM. Also, the inhibition was found to be 28.1% against Histone deacetylase 1 [2] and 93.1% in assay [1].

Turning to `COc1cc2c(Oc3ccc(NC(=O)Nc4ccccc4C(F)(F)F)cc3)ccnc2cc1OCCCCCCC(=O)NO`, the results for the half-inhibitory concentration (IC50) in the assay with MCF7 and in the assay with A549 were 1080 nM and 5280 nM, respectively. In addition, the inhibition was found to be 76.6% against Histone deacetylase 1 [2] and 28.6% in assay [1].

In the case of `COc1cc2c(Oc3ccc(NC(=O)NC4CCCCC4)cc3)ccnc2cc1OCCCCCCC(=O)NO`, the IC50 on Histone deacetylase 1 [3] came to 45.2 nM; in assay [4], 21.4 nM; with MCF7, 600 nM; with A549 it was 850 nM. Besides, the inhibition stood at 14.1% against Histone deacetylase 1 [2] and 38% in assay [1].

For `COc1cc2c(Oc3ccc(NC(=O)Nc4ccccc4)cc3)ccnc2cc1OCCCCCCC(=O)NO`, the IC50 on Histone deacetylase 1 [3] came out at 75 nM; in assay [4], 17 nM; in the assay with MCF7, 1040 nM; in the assay with A549 it was 1650 nM. For the same molecule, the inhibition against Histone deacetylase 1 [2] was 23.1%; in assay [1], 48%.

As to `COc1cc2c(Oc3ccc(NC(=O)NNC(=O)c4ccccc4)cc3)ccnc2cc1OCCCCCCC(=O)NO`, the concentration for half-maximal inhibition (IC50) in the assay on MCF7 turned out to be 2450 nM; with A549, 2820 nM. Also, the inhibition was 34.4% at Histone deacetylase 1 [2] and 38.5% in assay [1].

In the case of `COc1cc2c(Oc3ccc(NC(=O)N/N=C/c4ccccc4F)cc3)ccnc2cc1OCCCCCCC(=O)NO`, the figures for the IC50 with MCF7 and with A549 were 1610 nM and 7780 nM, respectively. Moreover, the figures for the inhibition (against Histone deacetylase 1 [2]; in assay [1]) were 10.4% and 81.5%, respectively.

As to `COc1cc2nccc(Oc3ccc(NC(=O)C4(C(=O)Nc5ccc(F)cc5)CC4)cc3)c2cc1OC` [CABOZANTINIB], the values for the IC50 with MCF7 and in the assay on A549 were 5400 nM and 7210 nM, respectively. The inhibition at Histone deacetylase 1 [2] came out at 20.9%.

As to `COc1cc2c(Oc3ccc(NC(=O)N/N=C/c4ccccc4)cc3)ccnc2cc1OCCCCCCC(=O)NO`, the results for the IC50 with MCF7 and with A549 were 610 nM and 3700 nM, respectively. This molecule also gave an inhibition in assay [1] of 75.9%.

Consider `COc1cc2c(Oc3ccc(NC(=O)Nc4ccccc4F)cc3)ccnc2cc1OCCCCCCC(=O)NO`, for which the IC50 was 131 nM at Histone deacetylase 1 [3], 39.2 nM in assay [4], 660 nM in the assay on MCF7 and 870 nM with A549. Besides, the inhibition stood at 32.1% on Histone deacetylase 1 [2] and 95.5% in assay [1].

For `COc1cc2c(Oc3ccc(NC(=O)Nc4ccc(C)cc4C)cc3)ccnc2cc1OCCCCCCC(=O)NO`, the IC50 was 3430 nM with MCF7 and 5490 nM with A549. The inhibition against Histone deacetylase 1 [2] worked out at 26.4%; in assay [1], 44.7%.

For the molecule `COc1cc2c(Oc3ccc(NC(=O)Nc4ccc(OC(F)(F)F)cc4)cc3)ccnc2cc1OCCCCCCC(=O)NO`, the IC50 with MCF7 was determined as 3200 nM; in the assay on A549 it was 3130 nM. In addition, the figures for the inhibition (on Histone deacetylase 1 [2]; in assay [1]) were 11.7% and 29.8%, respectively.

For the molecule `COc1cc2c(Oc3ccc(NC(=O)Nc4cccc(C)c4)cc3)ccnc2cc1OCCCCCCC(=O)NO`, the IC50 stood at 1240 nM with MCF7 and 2010 nM with A549. Besides, the inhibition at Histone deacetylase 1 [2] came to 66.6%; in assay [1] it was 25.7%.

For the molecule `COc1cc2c(Oc3ccc(NC(=O)NCCc4ccccc4)cc3)ccnc2cc1OCCCCCCC(=O)NO`, the IC50 in the assay on MCF7 was 4120 nM; with A549, 9040 nM. The values for the inhibition (against Histone deacetylase 1 [2]; in assay [1]) were 88% and 14.3%, respectively.

Regarding `COc1cc2c(Oc3ccc(NC(=O)Nc4ccccc4Cl)cc3)ccnc2cc1OCCCCCCC(=O)NO`, the figures for the IC50 in the assay with MCF7 and in the assay with A549 were 2780 nM and 1910 nM, respectively. In addition, the inhibition was determined as 45.2% against Histone deacetylase 1 [2] and 30.4% in assay [1].

With `COc1cc2c(Oc3ccc(NC(=O)Nc4ccc(Cl)c(C(F)(F)F)c4)cc3)ccnc2cc1OCCCCCCC(=O)NO`, the IC50 in the assay with MCF7 is 5150 nM; with A549, 5020 nM. In addition, the inhibition worked out at 40.9% against Histone deacetylase 1 [2] and 94.8% in assay [1].

As usually defined, the IC50 is the concentration needed to halve the response being measured. What is called inhibition is the drop in the measured response relative to a control, in per cent. A high value points to strong suppression.
